Bounds are passed on as bounds.

The target of this assay is T1, recombinant human GST-SYK (Homo sapiens, UniProt P43405).
T1 construct: purchased Carna Biosciences 08-176
As to the kind of experiment: Homogeneous Time-Resolved Fluorescence (HTRF) assay for the recombinant human SYK enzyme. In kind it is biochemical. The following applies: recombinant human GST-SYK 5 pM, ATP 25 μM, 10-dose titration; read-out: rhSYK Activity (IC50). On the procedure:
Homogeneous Time-Resolved Fluorescence (HTRF) Assay for the Recombinant Human SYK Enzyme:
A recombinant GST-hSYK fusion protein was used to measure potency of compounds to inhibit human SYK activity. The recombinant human GST-SYK (Carna Biosciences #08-176) (5 pM final concentration) was incubated with various concentrations of the inhibitor diluted in DMSO (0.1% final concentration) for 10 minutes at room temperature in 15 mM Tris-HCl (pH 7.5), 0.01% tween 20, 2 mM DTT in 384 well plate format. To initiate the reaction the biotinylated substrate peptide (250 nM final concentration) that contains the phosphorylation site for SYK was added with magnesium (5 mM final concentration) and ATP (25 μM final concentration). Final volume of the reaction was 10 μL. Phosphorylation of the peptide was allowed to proceed for 45′ at room temperature. To quench the reaction and detect the phosphorylated product, 2 nM of a Europium-atiti-phosphotyrosine antibody (Perkin Elmer #AD0161) and 70 nM SA-APC (Perkin-Elmer #CR130-100) were added together in 15 mM Tris pH 7.5, 40 mM EDTA, 0.01% tween 20. Final volume of the quenching solution was 10 μL. The resulting HTRF signal was measured after 30 minutes on a EnVision (Perkin-Elmer) reader using a time-resolved fluorescence protocol.
Consider `CC(=O)Nc1cc(Nc2nccc(C(F)(F)F)n2)cc(-c2cnc(NCCO)s2)c1` [Example 187], for which the IC50 is at most 100 nM.
On to `CSc1ccnc(Nc2cc(C)cc(-c3cnc(N4CCCNC(=O)C4)s3)c2)n1` [4-[5-(3-methyl-5-{[4-(methylsulfanyl)pyrimidin-2-yl]amino}phenyl)-1,3-thiazol-2-yl]-1,4-diazepan-2-one], for which the IC50 was at most 100 nM.
The figure for `Nc1ncc(-c2cccc(Nc3nccc(C(F)(F)F)n3)c2)s1` [Example 181, N-[3-(2-amino-1,3-thiazol-5-yl)phenyl]-4-(trifluoromethyl)pyrimidin-2-amine] is at most 100 nM.
The figure for `Fc1c(CNc2ncc(-c3cccc(Nc4nccc(C(F)(F)F)n4)c3)s2)cccc1C(F)(F)F` [Example 64] is 100 to 1000 nM; for `Cc1cc(Nc2ncc(F)c(OC3CCOC3)n2)cc(-c2cnc(N3CCCNC(=O)C3)s2)c1` (stereo not drawn) [Example 216, 4-[5-(3-{[5-fluoro-4-(tetrahydrofuran-3-yloxy)pyrimidin-2-yl]amino}-5-methylphenyl)-1,3-thiazol-2-yl]-1,4-diazepan-2-one] it is 100 to 1000 nM; for `COCCNc1ncc(-c2cccc(Nc3nccc(C(F)(F)F)n3)c2)s1` [Example 5] it is at most 100 nM.
The figure for `OCCOCCNc1ncc(-c2cccc(Nc3nccc(C(F)(F)F)n3)c2)s1` [Example 72] is at most 100 nM; for `Cc1cc(Nc2ncc(Cl)c(C)n2)cc(-c2cnc(N3CCCNC(=O)C3)s2)c1` [Example 211, 4-(5-{3-[(5-Chloro-4-methylpyrimidin-2-yl)amino]-5-methylphenyl}-1,3-thiazol-2-yl)-1,4-diazepan-2-one] it is at most 100 nM.
As to `FC(F)(F)c1ccnc(Nc2cccc(-c3cnc(NCC4CCOC4)s3)c2)n1` (stereo not drawn) [Example 45], the IC50 was at most 100 nM.
The figure for `NC1CCN(c2ncc(-c3cccc(Nc4nccc(C(F)(F)F)n4)c3)s2)C1` (stereo not drawn) [Example 162] is at most 100 nM; for `CC(=O)N1CCCN(c2ncc(-c3cccc(Nc4nccc(C(F)(F)F)n4)c3)s2)CC1` [Example 169] it is at most 100 nM.
The figure for `O[C@H]1CC[C@H](Nc2ncc(-c3cccc(Nc4nccc(C(F)(F)F)n4)c3)s2)CC1` [Example 19] is at most 100 nM; for `OCCC1CCN(c2ncc(-c3cccc(Nc4nccc(C(F)(F)F)n4)c3)s2)CC1` [Example 141] it is at most 100 nM.
Consider `COCC(=O)N1CCN(c2ncc(-c3cccc(Nc4nccc(C(F)(F)F)n4)c3)s2)CC1` [Example 127], for which the IC50 was at most 100 nM.
The figure for `COC(=O)c1ccc(N(C)c2ncc(-c3cccc(Nc4nccc(C(F)(F)F)n4)c3)s2)cc1` [Example 30] is 100 to 1000 nM; for `Cc1cc(Nc2nccc(C(F)(F)F)n2)cc(-c2cnc(NCc3cnsn3)s2)c1` [Example 105] it is at most 100 nM.
The figure for `Cc1cc(Nc2nccc(C#N)n2)cc(-c2cnc(N3CCCNC(=O)C3)s2)c1` [Example 204] is at most 100 nM; for `OC1(C(F)(F)F)CN(c2ncc(-c3cccc(Nc4nccc(C(F)(F)F)n4)c3)s2)C1` [Example 155] it is 100 to 1000 nM.
The figure for `NC(=O)C1CCN(c2ncc(-c3cccc(Nc4nccc(C(F)(F)F)n4)c3)s2)CC1` [Example 191, 1-[5-(3-{[4-(trifluoromethyl)pyrimidin-2-yl]amino}phenyl)-1,3-thiazol-2-yl]piperidine-4-carboxamide] is at most 100 nM.
`N[C@H]1CCN(c2ncc(-c3cccc(Nc4nccc(C(F)(F)F)n4)c3)s2)C1` [Example 163]: the IC50 is at most 100 nM.
On to `Cc1cc(Nc2nccc(C(F)(F)F)n2)cc(-c2cnc(NCc3cncn3C)s2)c1` [Example 87], for which the IC50 was at most 100 nM.
In the case of `Cc1cc(Nc2nccc(C(F)(F)F)n2)cc(-c2cnc(N3CCC4(CCNC4)CC3)s2)c1` [Example 1, N-{3-[2-(2,8-diazaspiro[4.5]dec-8-yl)-1,3-thiazol-5-yl]-5-methylphenyl}-4-(trifluoromethyl)-pyrimidin-2-amine], the IC50 is at most 100 nM.
Next, `NC(=O)C1CCN(c2nc(-c3cccc(Nc4nccc(C(F)(F)F)n4)c3)cs2)CC1` [Example 230, 1-[4-(3-{[4-(trifluoromethyl)pyrimidin-2-yl]amino}phenyl)-1,3-thiazol-2-yl]piperidine-4-carboxamide]: 100 to 1000 nM.
The figure for `Cc1cc(Nc2nccc(C(F)(F)F)n2)cc(-c2cnc(NCCc3cnccn3)s2)c1` [Example 96] is at most 100 nM.
The figure for `OCC1CCCCN1c1ncc(-c2cccc(Nc3nccc(C(F)(F)F)n3)c2)s1` (stereo not drawn) [Example 132] is at most 100 nM; for `Nc1cc(Nc2nccc(C(F)(F)F)n2)cc(-c2cnc(NCCO)s2)c1` [Example 190] it is at most 100 nM; for `COc1nc(Nc2cc(C)cc(-c3cnc(N4CCCNC(=O)C4)s3)c2)ncc1Cl` [Example 210, 4-(5-{3-[(5-chloro-4-methoxypyrimidin-2-yl)amino]-5-methylphenyl}-1,3-thiazol-2-yl)-1,4-diazepan-2-one] it is at most 100 nM.
For `COCC(O)CNc1ncc(-c2cccc(Nc3nccc(C(F)(F)F)n3)c2)s1` (stereo not drawn) [Example 50], the IC50 was at most 100 nM.
`OC1CCCC(Nc2ncc(-c3cccc(Nc4nccc(C(F)(F)F)n4)c3)s2)C1` (stereo not drawn) [Example 82]: the IC50 was at most 100 nM.
Next, `Cc1cc(Nc2nccc(C(C)C)n2)cc(-c2cnc(N3CCCNC(=O)C3)s2)c1` [Example 206]: at most 100 nM; `Cc1cc(Nc2nccc(C(F)(F)F)n2)cc(-c2cnc(NCc3cnsc3)s2)c1` [Example 104]: at most 100 nM.
Next, `Cc1cc(Nc2nccc(C(F)(F)F)n2)cc(-c2cnc(NCCc3ccco3)s2)c1` [Example 107]: at most 100 nM; `FC(F)(F)c1ccnc(Nc2cccc(-c3cnc(NCc4cccc(N5CCCCC5)c4)s3)c2)n1` [Example 57]: 1000 to 10000 nM.
Next, `CN1CCC(CNc2ncc(-c3cccc(Nc4nccc(C(F)(F)F)n4)c3)s2)C1` (stereo not drawn) [Example 53]: at most 100 nM; `Cc1cc(Nc2nccc(C(F)(F)F)n2)cc(-c2cnc(N3CCn4cncc4C3)s2)c1` [Example 174]: at most 100 nM.
In the case of `CCCCSc1ccnc(Nc2cc(C)cc(-c3cnc(N4CCCNC(=O)C4)s3)c2)n1` [Example 217, 4-[5-(3-{[4-(butylsulfanyl)pyrimidin-2-yl]amino}-5-methyphenyl)-1,3-thiazol-2-yl]-1,4-diazepan-2-one], the IC50 is at most 100 nM.
The figure for `C=Cc1ccnc(Nc2cc(C)cc(-c3cnc(N4CCCNC(=O)C4)s3)c2)n1` [Example 199, 4-(5-{3-[(4-ethenylpyrimidin-2-yl)amino]-5-methylphenyl}-1,3-thiazol-2-yl)-1,4-diazepan-2-one] is at most 100 nM; for `CCCN(CCO)c1ncc(-c2cccc(Nc3nccc(C(F)(F)F)n3)c2)s1` [Example 52] it is at most 100 nM.
Next, `CC(=O)NCCC1CCN(c2ncc(-c3cc(C)cc(Nc4nccc(C(F)(F)F)n4)c3)s2)CC1` [Example 150]: at most 100 nM.
The figure for `FC(F)(F)c1ccnc(Nc2cccc(-c3cnc(NCc4ccccn4)s3)c2)n1` [Example 37] is at most 100 nM.
On to `NC1CCN(c2ncc(-c3cccc(Nc4nccc(C(F)(F)F)n4)c3)s2)CC1` [Example 143], for which the IC50 was at most 100 nM.
The figure for `Cc1cc(Nc2nccc(C(F)(F)F)n2)cc(-c2cnc(NCc3ccncc3)s2)c1` [Example 86] is at most 100 nM; for `FC(F)(F)c1ccnc(Nc2cccc(-c3cnc(N4CCCNCC4)s3)c2)n1` [Example 167] it is at most 100 nM; for `Cc1cc(Nc2nccc(C(F)(F)F)n2)cc(-c2cnc(N3CCn4ccnc4C3)s2)c1` [Example 173] it is at most 100 nM.
As to `FC(F)(F)c1ccnc(Nc2cccc(-c3cnc(NCc4cccnc4)s3)c2)n1` [Example 39], the half-maximal inhibitory concentration (IC50) is at most 100 nM.
The figure for `Cc1cc(Nc2nccc(O[C@@H]3CCNC3)n2)cc(-c2cnc(N3CCCNC(=O)C3)s2)c1` [Example 212, 4-{5-[3-methyl-5-({4-[(3R)-pyrrolidin-3-yloxy]pyrimidin-2-yl}amino)phenyl]-1,3-thiazol-2-yl}-1,4-diazepan-2-one] is at most 100 nM; for `Cc1cc(Nc2nccc(C(F)(F)F)n2)cc(-c2cnc(NCCc3cccs3)s2)c1` [Example 108] it is 100 to 1000 nM; for `CC(C)(CO)CNc1ncc(-c2cccc(Nc3nccc(C(F)(F)F)n3)c2)s1` [Example 16] it is at most 100 nM.
Next, `OCCN(Cc1ccccn1)c1ncc(-c2cccc(Nc3nccc(C(F)(F)F)n3)c2)s1` [Example 8]: at most 100 nM; `CS(=O)(=O)Nc1ncc(-c2cccc(Nc3nccc(C(F)(F)F)n3)c2)s1` [Example 177]: at most 100 nM.
Turning to `CC(=O)OCC(=O)Nc1ncc(-c2cccc(Nc3nccc(C(F)(F)F)n3)c2)s1` [Example 182, 2-oxo-2-{[5-(3-{[4-(trifluoromethyl)pyrimidin-2-yl]amino}phenyl)-1,3-thiazol-2-yl]amino}ethyl acetate], the IC50 was at most 100 nM.
In the case of `CC1(O)CN(c2ncc(-c3cccc(Nc4nccc(C(F)(F)F)n4)c3)s2)C1` [Example 154], the IC50 is at most 100 nM.
The figure for `Oc1ccc(CCNc2ncc(-c3cccc(Nc4nccc(C(F)(F)F)n4)c3)s2)cc1` [Example 46] is 100 to 1000 nM.
As to `Cc1cc(Nc2nccc(C(F)(F)F)n2)cc(-c2cnc(NCCc3c[nH]cn3)s2)c1` [Example 93], the IC50 was at most 100 nM.

Source of the values: patent publication US8735417B2, “Aminopyrimidines as Syk inhibitors” (Merck Sharp & Dohme Corp., priority 2009, dated 2014).
